Reference: US4572895A, “Process for preparing an antibiotic complex by culturing actinomyces strain ATCC 39417” (priority 1985, dated 1986)
Converted amounts (≈) assume the structure as drawn. Where two headings read alike, the source gives them in different places.

Tests used:
[1] = system: Staphylococcus aureus 209P; assay: MIC, serial two-fold agar dilution; type: cell-based; conditions: nutrient agar
[2] = system: Staphylococcus aureus Smith; assay: MIC, serial two-fold agar dilution; type: cell-based; conditions: nutrient agar
[3] = system: Bacillus subtilis PCI 219; assay: MIC, serial two-fold agar dilution; type: cell-based; conditions: PCI219, nutrient agar
[4] = system: Micrococcus luteus PCI 1001; assay: MIC, serial two-fold agar dilution; type: cell-based; conditions: PCI1001, nutrient agar
Micrococcus flavus D12 = assay: MIC, serial two-fold agar dilution; type: cell-based; conditions: nutrient agar
Escherichia coli NIHJ = assay: MIC, serial two-fold agar dilution; type: cell-based; conditions: nutrient agar
[5] = system: Klebsiella pneumoniae D11; assay: MIC, serial two-fold agar dilution; type: cell-based; conditions: nutrient agar
[6] = system: Pseudomonas aeruginosa D15; assay: MIC, serial two-fold agar dilution; type: cell-based; conditions: nutrient agar
[7] = system: Candida albicans IAM 4888; assay: MIC, serial two-fold agar dilution; type: cell-based; conditions: IAM4888, Sabouraud agar
[8] = system: Cryptococcus neoformans D49; assay: MIC, serial two-fold agar dilution; type: cell-based; conditions: Sabouraud agar
[9] = system: Aspergillus fumigatus IAM 2530; assay: MIC, serial two-fold agar dilution; type: cell-based; conditions: IAM2530, Sabouraud agar
[10] = system: Trichophyton mentagrophytes D155; assay: MIC, serial two-fold agar dilution; type: cell-based; conditions: Sabouraud agar
Clostridium difficile = assay: MIC, serial two-fold agar dilution; type: cell-based; conditions: Clostridioides difficile; GAM agar, anaerobe
[11] = system: gram-negative bacteria and fungi; assay: antibacterial/antifungal activity (MIC), summary; type: cell-based
[12] = system: P388, L1210 and B16 tumors; assay: antitumor activity in mice, summary over P388, L1210 and B16; type: in vivo, BDF1 mice; conditions: experimental mouse tumors
solubility = type: physicochemical; conditions: acidic water
[13] = system: aerobic gram-positive bacteria and anaerobic bacteria; assay: antibacterial activity, summary; type: cell-based
Text: Nutrient agar medium was used for gram-positive and gram-negative bacteria, GAM agar medium for anaerobes and Sabouraud agar medium for fungi.

Bacteroides fragilis = assay: MIC, serial two-fold agar dilution; type: cell-based; conditions: GAM agar, anaerobe
Clostridium perfringens = assay: microbe, parasite or virus in culture; type: cell-based
Propionibacterium acnes = assay: MIC, serial two-fold agar dilution; type: cell-based; conditions: Cutibacterium acnes; GAM agar, anaerobe
[14] = system: lymphocytic leukemia P388; conditions: qd 1→9
lymphoid leukemia L1210 [15] = conditions: qd 1→9
melanotic melanoma B16 [16] = conditions: qd 1→9
melanotic melanoma B16 [17] = assay: antitumor activity, B16 melanoma in mice; conditions: qd 1→9
[18] = system: lymphocytic leukemia P388; assay: antitumor activity, P388 leukemia in mice; conditions: qd 1→9
lymphoid leukemia L1210 [19] = assay: antitumor activity, L1210 leukemia in mice; conditions: qd 1→9

Cc1ccc2oc(=O)c3c(O)c4cccc(O[C@@H]5O[C@H](C)[C@H](O)[C@](C)(O)[C@H]5O)c4c4oc(=O)c1c2c34 [BBM-2478B]
MIC [1]: 3.1 µg/mL (≈ 6.27 µM)
MIC [2]: 6.3 µg/mL (≈ 12.7 µM)
MIC [3]: 0.8 µg/mL (≈ 1.62 µM)
MIC [4]: 3.1 µg/mL (≈ 6.27 µM)
MIC (Micrococcus flavus D12): 1.6 µg/mL (≈ 3.24 µM)
MIC (Escherichia coli NIHJ): > 100 µg/mL
MIC [5]: > 100 µg/mL
MIC [6]: > 100 µg/mL
MIC [7]: > 100 µg/mL
MIC [8]: > 100 µg/mL
MIC [9]: > 100 µg/mL
MIC [10]: > 100 µg/mL
MIC (Clostridium difficile): 25 µg/mL (≈ 50.6 µM)
activity against gram-negative bacteria and fungi [11]: inactive
antitumor activity [12]: devoid of antitumor activity
solubility in acidic water (solubility): insoluble
antibacterial activity [13]: potent antibacterial activity

CO[C@H]1[C@@H](O)[C@@H](C)O[C@H](O[C@H]2[C@H](Oc3cccc4c(O)c5c(=O)oc6ccc(C)c7c(=O)oc(c34)c5c67)O[C@H](C)[C@H](O)[C@@H]2O)[C@@H]1O [Chartreusin, reference compound]
MIC [1]: 3.1 µg/mL (≈ 4.84 µM)
MIC [2]: 6.3 µg/mL (≈ 9.83 µM)
MIC [3]: 0.4 µg/mL (≈ 0.624 µM)
MIC [4]: 0.8 µg/mL (≈ 1.25 µM)
MIC (Micrococcus flavus D12): 0.4 µg/mL (≈ 0.624 µM)
MIC (Escherichia coli NIHJ): > 100 µg/mL
MIC [5]: > 100 µg/mL
MIC [6]: > 100 µg/mL
MIC [7]: > 100 µg/mL
MIC [8]: > 100 µg/mL
MIC [9]: > 100 µg/mL
MIC [10]: > 100 µg/mL
MIC (Bacteroides fragilis): 6.3 µg/mL (≈ 9.83 µM)
MIC (Clostridium perfringens): 1.6 µg/mL (≈ 2.5 µM)
MIC (Propionibacterium acnes): 3.1 µg/mL (≈ 4.84 µM)
activity against gram-negative bacteria and fungi [11]: inactive
MST ([14]; 0.1 mg/kg/day ip): 9.0 days
MST ([14]; 0.3 mg/kg/day ip): 10.5 days
MST ([14]; 10 mg/kg/day ip): 19.5 days
MST (lymphoid leukemia L1210 [15]; 0.1 mg/kg/day ip): 8.0 days
MST (lymphoid leukemia L1210 [15]; 0.3 mg/kg/day ip): 8.0 days
MST (lymphoid leukemia L1210 [15]; 1 mg/kg/day ip): 9.0 days
MST (lymphoid leukemia L1210 [15]; 3 mg/kg/day ip): 9.0 days
MST (lymphoid leukemia L1210 [15]; 10 mg/kg/day ip): 11.5 days
MST (melanotic melanoma B16 [16]; 0.3 mg/kg/day ip): 14.0 days
MST (melanotic melanoma B16 [16]; 1 mg/kg/day ip): 16.0 days
MST (melanotic melanoma B16 [16]; 3 mg/kg/day ip): 20.5 days
MST (melanotic melanoma B16 [16]; 10 mg/kg/day ip): 25.0 days
Average wt. change on day 5 (melanotic melanoma B16 [17]; 0.3 mg/kg/day ip): +1.8 g
Survivors on day 5 (melanotic melanoma B16 [17]; 0.3 mg/kg/day ip): 6/6
Survivors on day 45 (melanotic melanoma B16 [17]; 0.3 mg/kg/day ip): 0/6
T/C (melanotic melanoma B16 [17]; 0.3 mg/kg/day ip): 100%
Average wt. change on day 5 (melanotic melanoma B16 [17]; 1 mg/kg/day ip): +2.3 g
Survivors on day 5 (melanotic melanoma B16 [17]; 1 mg/kg/day ip): 6/6
T/C (melanotic melanoma B16 [17]; 1 mg/kg/day ip): 114%
Average wt. change on day 5 (melanotic melanoma B16 [17]; 3 mg/kg/day ip): +2.3 g
Survivors on day 5 (melanotic melanoma B16 [17]; 3 mg/kg/day ip): 6/6
Survivors on day 45 (melanotic melanoma B16 [17]; 3 mg/kg/day ip): 0/6
Average wt. change on day 5 (melanotic melanoma B16 [17]; 10 mg/kg/day ip): +1.7 g
Survivors on day 5 (melanotic melanoma B16 [17]; 10 mg/kg/day ip): 6/6
Survivors on day 45 (melanotic melanoma B16 [17]; 10 mg/kg/day ip): 0/6
Average wt. change on day 5 ([18]; 0.1 mg/kg/day ip): +2.8 g
Survivors on day 5 ([18]; 0.1 mg/kg/day ip): 6/6
Survivors on day 45 ([18]; 0.1 mg/kg/day ip): 0/6
T/C ([18]; 0.1 mg/kg/day ip): 100%
Average wt. change on day 5 ([18]; 0.3 mg/kg/day ip): +2.0 g
Survivors on day 5 ([18]; 0.3 mg/kg/day ip): 6/6
Survivors on day 45 ([18]; 0.3 mg/kg/day ip): 0/6
T/C ([18]; 0.3 mg/kg/day ip): 117%
Average wt. change on day 5 ([18]; 1 mg/kg/day ip): +1.3 g
MST ([18]; 1 mg/kg/day ip): 14.0 days
Survivors on day 5 ([18]; 1 mg/kg/day ip): 6/6
Survivors on day 45 ([18]; 1 mg/kg/day ip): 0/6
Average wt. change on day 5 ([18]; 3 mg/kg/day ip): +1.5 g
MST ([18]; 3 mg/kg/day ip): 15.0 days
Survivors on day 5 ([18]; 3 mg/kg/day ip): 6/6
Survivors on day 45 ([18]; 3 mg/kg/day ip): 0/6
Average wt. change on day 5 ([18]; 10 mg/kg/day ip): +1.3 g
Survivors on day 5 ([18]; 10 mg/kg/day ip): 6/6
Survivors on day 45 ([18]; 10 mg/kg/day ip): 0/6
Average wt. change on day 5 (lymphoid leukemia L1210 [19]; 0.1 mg/kg/day ip): +3.1 g
Survivors on day 5 (lymphoid leukemia L1210 [19]; 0.1 mg/kg/day ip): 6/6
Survivors on day 45 (lymphoid leukemia L1210 [19]; 0.1 mg/kg/day ip): 0/6
T/C (lymphoid leukemia L1210 [19]; 0.1 mg/kg/day ip): 100%
Average wt. change on day 5 (lymphoid leukemia L1210 [19]; 0.3 mg/kg/day ip): +3.2 g
Survivors on day 5 (lymphoid leukemia L1210 [19]; 0.3 mg/kg/day ip): 6/6
Survivors on day 45 (lymphoid leukemia L1210 [19]; 0.3 mg/kg/day ip): 0/6
T/C (lymphoid leukemia L1210 [19]; 0.3 mg/kg/day ip): 100%
Average wt. change on day 5 (lymphoid leukemia L1210 [19]; 1 mg/kg/day ip): +1.9 g
Survivors on day 5 (lymphoid leukemia L1210 [19]; 1 mg/kg/day ip): 6/6
Survivors on day 45 (lymphoid leukemia L1210 [19]; 1 mg/kg/day ip): 0/6
T/C (lymphoid leukemia L1210 [19]; 1 mg/kg/day ip): 113%
Average wt. change on day 5 (lymphoid leukemia L1210 [19]; 3 mg/kg/day ip): +1.4 g
Survivors on day 5 (lymphoid leukemia L1210 [19]; 3 mg/kg/day ip): 6/6
Survivors on day 45 (lymphoid leukemia L1210 [19]; 3 mg/kg/day ip): 0/6
T/C (lymphoid leukemia L1210 [19]; 3 mg/kg/day ip): 113%
Average wt. change on day 5 (lymphoid leukemia L1210 [19]; 10 mg/kg/day ip): +1.3 g
Survivors on day 5 (lymphoid leukemia L1210 [19]; 10 mg/kg/day ip): 6/6
Survivors on day 45 (lymphoid leukemia L1210 [19]; 10 mg/kg/day ip): 0/6
